Laboratory results from patent publication US9096518B2, “Substituted hydroxamic acids and uses thereof” (Millennium Pharmaceuticals, Inc., priority 2009, dated 2015).

Target: T1, purified human HDAC6 (Homo sapiens, UniProt Q9UBN7)
T1 construct: purchased BPS Bioscience 5006
T1 sequence (Q9UBN7 1-1215): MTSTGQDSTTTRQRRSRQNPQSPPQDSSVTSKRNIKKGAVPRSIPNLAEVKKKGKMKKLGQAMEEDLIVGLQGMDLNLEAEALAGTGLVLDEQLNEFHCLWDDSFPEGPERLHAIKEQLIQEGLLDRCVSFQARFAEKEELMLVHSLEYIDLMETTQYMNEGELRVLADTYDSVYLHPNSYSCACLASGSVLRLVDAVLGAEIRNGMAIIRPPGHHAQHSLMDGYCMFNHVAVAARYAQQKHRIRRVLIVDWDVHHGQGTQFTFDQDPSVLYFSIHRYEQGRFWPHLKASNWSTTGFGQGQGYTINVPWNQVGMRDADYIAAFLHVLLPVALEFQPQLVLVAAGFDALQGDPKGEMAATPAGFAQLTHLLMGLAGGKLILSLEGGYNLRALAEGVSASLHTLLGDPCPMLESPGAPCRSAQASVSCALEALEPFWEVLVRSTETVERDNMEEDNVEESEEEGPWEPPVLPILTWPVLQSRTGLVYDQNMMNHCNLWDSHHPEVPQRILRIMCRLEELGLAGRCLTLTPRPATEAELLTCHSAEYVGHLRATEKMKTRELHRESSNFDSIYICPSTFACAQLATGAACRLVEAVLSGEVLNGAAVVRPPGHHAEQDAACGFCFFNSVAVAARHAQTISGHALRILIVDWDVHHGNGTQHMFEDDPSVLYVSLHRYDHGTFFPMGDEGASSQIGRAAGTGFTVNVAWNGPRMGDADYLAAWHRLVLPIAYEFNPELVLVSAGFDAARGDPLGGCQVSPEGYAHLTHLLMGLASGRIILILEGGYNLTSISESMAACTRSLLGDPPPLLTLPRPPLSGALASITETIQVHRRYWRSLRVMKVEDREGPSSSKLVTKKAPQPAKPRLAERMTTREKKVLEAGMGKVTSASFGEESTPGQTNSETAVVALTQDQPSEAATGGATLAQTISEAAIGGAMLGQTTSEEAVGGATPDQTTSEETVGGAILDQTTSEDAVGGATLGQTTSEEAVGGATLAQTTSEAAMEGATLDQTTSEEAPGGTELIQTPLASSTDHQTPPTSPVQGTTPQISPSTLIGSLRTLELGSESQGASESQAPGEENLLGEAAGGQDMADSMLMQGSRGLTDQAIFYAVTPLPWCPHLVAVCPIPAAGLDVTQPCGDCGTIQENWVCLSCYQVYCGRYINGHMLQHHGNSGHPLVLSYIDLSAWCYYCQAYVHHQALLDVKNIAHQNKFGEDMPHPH
Experiment: HDAC6 Enzyme Assay
Assay type: biochemical
Procedure, shortened: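 Purified human HDAC6 incubated 1 h at 30 °C with Ac-Arg-Gly-Lys(Ac)-AMC peptide and compound; reaction stopped with trichostatin A, then trypsin releases AMC, read by fluorescence (Ex 340/Em 460 nm). IC50 from concentration-response curves relative to DMSO controls.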

Compound | IC50 [nM]
CC(=O)N/C(=C\c1ccccc1)C(=O)N1CCCc2cc(C(=O)NO)ccc2C1 [Compound 254, 2-[(2Z)-2-(acetylamino)-3-phenylprop-2-enoyl]-N-hydroxy-2,3,4,5-tetrahydro-1H-2-benzazepine-7-carboxamide] | 100 to 500
O=C(NO)c1ccc2c(c1)CCCN(C(=O)c1cc3cc(Cl)ccc3o1)C2 [Compound 257, 2-[(5-chloro-1-benzofuran-2-yl)carbonyl]-N-hydroxy-2,3,4,5-tetrahydro-1H-2-benzazepine-7-carboxamide] | 50 to 100
O=C(NO)c1ccc2c(c1)CCCN(C(=O)c1csc3ccccc13)C2 [Compound 258, 2-(1-benzothien-3-ylcarbonyl)-N-hydroxy-2,3,4,5-tetrahydro-1H-2-benzazepine-7-carboxamide] | 100 to 500
O=C(NO)c1ccc2c(c1)CCCN(C(=O)c1cccs1)C2 [Compound 260, N-hydroxy-2-(2-thienylcarbonyl)-2,3,4,5-tetrahydro-1H-2-benzazepine-7-carboxamide] | 100 to 500
O=C(NO)c1ccc2c(c1)CCCN(C(=O)c1cc(C(F)(F)F)cc(C(F)(F)F)c1)C2 [Compound 261] | > 500

The next lines start with the values.

IC50 [nM] | Compound
100 to 500 | O=C(NO)c1ccc2c(c1)CCCN(C(=O)c1cnc3ccccc3c1)C2 [Compound 255, N-hydroxy-2-(quinolin-3-ylcarbonyl)-2,3,4,5-tetrahydro-1H-2-benzazepine-7-carboxamide]
100 to 500 | CC(=O)Nc1cc(NC(C)=O)cc(C(=O)N2CCCc3cc(C(=O)NO)ccc3C2)c1 [Compound 256, 2-[3,5-bis(acetylamino)benzoyl]-N-hydroxy-2,3,4,5-tetrahydro-1H-2-benzazepine-7-carboxamide]
> 500 | Cc1cc(C)c(C(=O)N2CCCc3cc(C(=O)NO)ccc3C2)c(C)c1 [Compound 259]
